Assay results as given in patent US8940704B2, “Advantageous salts of μ-opiate receptor peptides” (Cytogel Pharma, LLC, priority 2007, dated 2015).
In brackets after ≈: the same amount, converted by molar mass.

Key:
[1] = Solution stability (HPLC total area normalization); type: physicochemical; conditions: for Solution stability, 2 weeks at 25° C. / Solution stability, 2 weeks at 40° C. / Solution stability, Time Zero: 90:10 acetonitrile:water with 0.1% TFA; for Solution stability, Time Zero: 0.3 mg/mL
Description: Solution Stability. The four final salt candidates were dissolved (in duplicate) in acetonitrile: water: (90:10) with 0.1% TFA at a concentration of 0.3 mg (free base basis) per mL of solvent. The scintillation vials were sealed. One vial of each salt solution was placed in a 40™C over for 2 weeks. Another vial of each salt solution was stored at 25° C. for 2 week. These solutions (and “time zero” solutions) were analyzed for CYT-1010 by HPLC.
(§1) HPLC Analysis. Salt candidates were analyzed by total area normalization (TAN). The samples were dissolved in acetonitrile:water (90:10) with 0.1% TFA at a free base concentration of 0.3 mg/mL.
(§2) • HPLC column: YMC-Pack ODS-A 150 mm, 4.6 mm, 5 micron • Guard Column (optional) None • Column Temp: 25±1° C. • Sample Temp: ambient • Autosampler Flush: 1:1 Water:CAN • Flow Rate: 1.5 mL/min • Injection Volume: 7 μL • UV Detection: 215 nm • Run Time: 32 minutes • Analysis Time: 32 minutes • Mobil Phase: A—0.1% TFA in water • B—0.1% TFA in CAN • Gradient Puym Program*: […]
The solution stability characteristics were evaluated by collecting HPLC data on solutions stored in sealed vials for two weeks at approximately 25 and 40° C. The storage solution consisted of 90:10 acetronitrile:water with 0.1% TFA which is the diluent for the HPLC assay.

[2] = Solid state stability (HPLC total area normalization); type: physicochemical; conditions: for Solid state stability, 2 weeks at 25° C. / Solid state stability, 2 weeks at 60° C.: sealed vial
Description: Solid State Stability. Power samples of the four final salt candidates were transferred (in duplicate) to scintillation vials and sealed. One vial of each salt was placed in a 60° C. over for 2 week. Another vial of each salt was stored at 25° C. for 2 week. These samples (and “time zero” solutions) were analyzed for CYT-1010 by HPLC.
as §1, §2
The solid state stability characteristics were evaluated by collecting HPLC data on salt samples stored in sealed vials at 25 and 60° C. for two weeks.

[3] = Photostability (ICH option 2 UV, HPLC); type: physicochemical; conditions: for Photostability, 2 weeks UV Exposed: ICH option 2 UV; for Photostability, 2 weeks UV Exposed / Photostability, 2 weeks Dark Control: about 25° C.; for Photostability, 2 weeks Dark Control: covered with aluminum foil; for decrease in area %, photostability: from time zero to UV exposed
Description: Photo Stability. Samples of the four final salt candidates were transferred (in duplicate) to crystallizing dishes and sealed with Saran® wrap. One dish of each salt was also covered with aluminum foil (as the dark controls). Another dish of each salt was not covered with aluminum foil (as the photoexposed samples). The samples were exposed to ICH compliant option 2 UV sources to examine their stability with respect to light at approximately 25° C. Dark controls and time zero samples were also analyzed for comparison. Samples were analyzed for CYT-1010 by HPLC.
as §1, §2
Samples of the four salt candidates were exposed to ICH compliant option 2 UV sources to examine their stability with respect to light at approximately 25° C. Dark controls were also analyzed for comparison.

[4] = Oxidation stability (pure oxygen atmosphere, HPLC); type: physicochemical
Description: Oxidation Stability. Samples of the four final salt candidates were exposed to a pure oxygen atmosphere for 2 weeks to examiner their stability with respect to oxidation at 25° C. Samples were analyzed for CYT-1010 by total area normalization for impurity profile by HPLC.
as §1, §2
Samples of the four salts were exposed to a pure oxygen atmosphere to examine their stability with respect to oxidation at 25° C.

[5] = Dynamic vapor sorption (DVS); type: physicochemical; conditions: 25° C.
Description: Dynamic Vapor Sorption (DVS) (Performed by Surface Measurement Systems Ltd., Allentown, Pa.). Samples were run in an automated dynamic vapor sorption analyzer from 0 to 95% relative humidity and back to 0% relative humidity at 25° C. in 5% RH steps. Samples were predried (to constant mass) under a dry nitrogen stream before analysis. Weight change as a function of humidity and time was recorded to construct a moisture isotherm and kinetic plot of water sorption and desorption. Sample masses were generally in the range of 1-5 mg.

[6] = HPLC impurity profile at time zero; type: physicochemical
Description: as §1, §2
The scaled-up aspartate, hydrochloride, lactate, and maleate salts together with the free base were analyzed in duplicate by total area normalization (TAN) to determine their impurity profiles. […] The salts were also stressed in solution using heat.
Samples were prepared at a free base concentration of 0.3 mg/mL. The diluent for all sample preparations was 90:10 acetronitrile:water with 0.1% TFA. All solutions were sonicated for at least five minutes prior to analysis. Analysis was done over four days. The impurity profile of the free base, as shown in the table below, was consistent over this time.
Time Zero. Some observations were made concerning the HPLC impurity profile of the free base and salt samples. First, impurities at 0.89, 0.92, 1.02, and 1.03 RRT (relative retention time) are detected in the time zero sample preparations of the free base and all four salts. The largest of these four impurities is the 1.02 RRT impurity which is between 0.4 and 0.5 area % in all five compounds. The maleate salt also has a very large impurity peak at time zero (2.7 area %) at 1.14 RRT. Thus the maleate salt has a relatively low area % purity of 96 area %.

physchem = conditions: aqueous buffer
delta receptors = delta receptors (Homo sapiens, UniProt P41143); conditions: selectivity mu over delta
Sequence of delta receptors (P41143 whole entry): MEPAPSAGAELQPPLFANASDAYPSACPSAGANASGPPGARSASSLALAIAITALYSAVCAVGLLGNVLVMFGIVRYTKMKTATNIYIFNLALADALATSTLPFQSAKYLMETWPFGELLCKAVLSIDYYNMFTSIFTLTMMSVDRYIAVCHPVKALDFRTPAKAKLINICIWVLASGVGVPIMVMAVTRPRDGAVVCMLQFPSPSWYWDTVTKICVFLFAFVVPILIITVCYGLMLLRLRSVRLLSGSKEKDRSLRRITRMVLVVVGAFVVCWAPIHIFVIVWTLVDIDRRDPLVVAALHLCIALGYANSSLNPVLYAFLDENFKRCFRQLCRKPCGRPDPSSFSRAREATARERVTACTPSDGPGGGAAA

[7] = 2 weeks at 25° C. versus time zero
[8] = 2 weeks at 60° C. as compared to 25° C. data
[9] = 2 weeks pure oxygen atmosphere, 25° C.

## NC(Cc1ccc(O)cc1)C(=O)NC1CCCCNC(=O)C(Cc2ccccc2)NC(=O)C(Cc2c[nH]c3ccccc23)NC1=O [Free Base, H-Tyr-c-[D-Lys-Trp-Phe]]
[1]; 2 weeks at 25° C.
  Solution stability, 2 weeks at 25° C.: 98.6 area %
[1]; 2 weeks at 40° C.
  Solution stability, 2 weeks at 40° C.: 98.7 area %
[1]; solution, 2 weeks at 25° C.
  Impurity by RRT 0.21: 0.50 area %
  Impurity by RRT 0.89: 0.06 area %
  Impurity by RRT 0.92: 0.04 area %
  Impurity by RRT 0.95: 0.06 area %
  Impurity by RRT 1.02: 0.53 area %
  Impurity by RRT 1.03: 0.18 area %
[1]; solution, 2 weeks at 40° C.
  Impurity by RRT 0.21: 0.50 area %
  Impurity by RRT 0.89: 0.04 area %
  Impurity by RRT 0.95: 0.03 area %
  Impurity by RRT 1.02: 0.51 area %
  Impurity by RRT 1.03: 0.18 area %
[1]
  Solution stability, Time Zero: 99.2 area %
[2]; [7]
  decrease in area %, solid state stability: 0.4 area %
[2]; [8]
  decrease in area %, solid state stability: decreased slightly
[2]
  Solid state stability, Time Zero: 99.2 area %
  Solid state stability, 2 weeks at 25° C.: 98.8 area %
  Solid state stability, 2 weeks at 60° C.: 98.7 area %
[2]; summary of Tables 6-9
  changes in HPLC-TAN values upon exposure to heat, light, or oxygen: did not exhibit significant changes
[3]
  Photostability, 2 weeks UV Exposed: 98.9 area %
  Photostability, 2 weeks Dark Control: 99.0 area %
  Photostability, Time Zero: 99.2 area %
  decrease in area %, photostability: 0.3 area %
[4]; [9]
  Impurity by RRT 0.87: 0.04 area %
  Impurity by RRT 0.89: 0.30 area %
  Impurity by RRT 0.92: 0.20 area %
  Impurity by RRT 0.95: 0.04 area %
  Impurity by RRT 1.02: 0.53 area %
  Impurity by RRT 1.03: 0.20 area %
  Oxidation stability, 2 weeks Oxidation: 97.7 area %
[4]; 2 weeks pure oxygen versus time zero
  decrease in area %, oxidative stability: 1.5 area %
[4]
  Oxidation stability, Time Zero: 99.2 area %
[5]; by 90% RH
  DVS water uptake: up to 1.7 wt %
[6]
  Impurity by RRT 0.89: 0.09 area %
  Impurity by RRT 0.92: 0.05 area %
  Impurity by RRT 1.02: 0.53 area %
  Impurity by RRT 1.03: 0.16 area %
physchem; pH 7
  solubility: < 3 µg/mL
physchem; pH 10
  solubility: 6 µg/mL (≈ 9.6 µM)

## H-Tyr-Pro-Trp-Phe-NH2 [SEQ ID NO:1]
Delta receptors
  fold weaker binding to delta receptors than to mu opiate receptor: over 4000 fold

## Lactate
[1]; 2 weeks at 25° C.
  Solution stability, 2 weeks at 25° C.: 98.5 area %
[1]; 2 weeks at 40° C.
  Solution stability, 2 weeks at 40° C.: 98.5 area %
[1]; solution, 2 weeks at 25° C.
  Impurity by RRT 0.21: 0.59 area %
  Impurity by RRT 0.89: 0.05 area %
  Impurity by RRT 0.92: 0.11 area %
  Impurity by RRT 0.95: 0.14 area %
  Impurity by RRT 1.02: 0.49 area %
  Impurity by RRT 1.03: 0.15 area %
[1]; solution, 2 weeks at 40° C.
  Impurity by RRT 0.21: 0.62 area %
  Impurity by RRT 0.89: 0.04 area %
  Impurity by RRT 0.92: 0.04 area %
  Impurity by RRT 0.95: 0.14 area %
  Impurity by RRT 0.98: <0.03 area %
  Impurity by RRT 1.02: 0.50 area %
  Impurity by RRT 1.03: 0.16 area %
  Impurity by RRT 1.32: <0.03 area %
  Impurity by RRT 2.39: <0.03 area %
[1]
  Solution stability, Time Zero: 99.2 area %
[2]; [7]
  decrease in area %, solid state stability: 0.2 area %
[2]; [8]
  decrease in area %, solid state stability: 0.5 area %
[2]
  Solid state stability, Time Zero: 99.2 area %
  Solid state stability, 2 weeks at 25° C.: 99.0 area %
  Solid state stability, 2 weeks at 60° C.: 98.5 area %
[3]
  Photostability, 2 weeks UV Exposed: 98.6 area %
  Photostability, 2 weeks Dark Control: 99.0 area %
  Photostability, Time Zero: 99.2 area %
  decrease in area %, photostability: 0.6 area %
[4]; [9]
  Impurity by RRT 0.87: <0.03 area %
  Impurity by RRT 0.89: 0.24 area %
  Impurity by RRT 0.92: 0.20 area %
  Impurity by RRT 0.95: 0.13 area %
  Impurity by RRT 1.02: 0.49 area %
  Impurity by RRT 1.03: 0.15 area %
  Impurity by RRT 1.18: <0.03 area %
  Oxidation stability, 2 weeks Oxidation: 98.8 area %
[4]
  Oxidation stability, Time Zero: 99.2 area %
[5]; 0-70% RH range
  DVS water uptake: 1-3 wt %
[5]; by 90% RH
  DVS water uptake: up to 6 wt %
[6]
  Impurity by RRT 0.89: 0.04 area %
  Impurity by RRT 0.92: 0.08 area %
  Impurity by RRT 0.95: 0.10 area %
  Impurity by RRT 1.02: 0.49 area %
  Impurity by RRT 1.03: 0.13 area %
  Impurity by RRT 1.18: <0.03 area %
